Assay results as given in a melting point compilation (Tetko et al.; mined from patent text by program, amines drawn as free bases though some values may be those of a salt).

Row | Compound | melting point
1 | CCCC1=NN(c2cccnc2)C(=O)C1=CNc1ccccc1CC | 144 °C
2 | CN1CCN(C(=O)CC2(C)OCCc3c2[nH]c2ccccc32)CC1 (stereo not given) | 80 to 84 °C
3 | CCc1nc2cnc3cc(O)ccc3c2n1CC(C)C | > 250 °C
4 | CN(Cc1ccc(NC(=O)C2=Cc3cc(-c4ccncc4)ccc3OCC2)cc1)C1CCOCC1 | 186 to 187 °C
5 | CC(C)(C)C1=NN(c2ccc(C(=O)O)cc2)C(c2ccccc2)C1 (stereo not given) | 233 °C
6 | Cc1ccc(C(=O)NC(NC(=S)Nc2cccnc2)c2ccccc2)cc1 (stereo not given) | 156 to 158 °C
7 | CC(C)(C)OC(=O)NNc1cccc([N+](=O)[O-])c1 | 105 °C
8 | O=C(Nc1cccc(S(=O)(=O)C(F)(F)F)c1)c1cnn2c(C(F)(F)F)cc(-c3ccc(C(F)(F)F)cc3)nc12 | 207 °C
9 | COC(=O)c1ccc(=O)n(N)c1 | 136 to 137 °C
10 | CN1c2ccc([N+](=O)[O-])cc2CS1(=O)=O | 214 to 216 °C
11 | CC(Br)c1ncnc(Sc2ccc(Cl)cc2)c1F (stereo not given) | 86.2 to 87.5 °C
12 | CCOC(=O)CC(=O)Cc1ccc(Br)cc1[N+](=O)[O-] | 78 to 80 °C
13 | CC1CC(n2cncc2C(=O)O)c2ccccc21 (stereo not given) | 209 °C
14 | O=S(=O)(Nc1ccc(I)cc1)c1ccccc1 | 141 to 143 °C
15 | COc1nc(CC(=O)OC(C)(C)C)c([N+](=O)[O-])cc1C | 71 to 72.5 °C
16 | NC(=O)N1C[C@@H](O)[C@H](Oc2ccc(Cl)cc2)C1 (relative stereo) | 223 to 225 °C
17 | C=C/C=C/CCOC(=O)c1cc(CBr)cc(CBr)c1 | 50 to 52 °C
18 | C[Si](C)(C)C#Cc1ccc(Oc2ccc(C(=O)C(=O)c3cccc(C(=O)C(=O)c4ccc(Oc5ccc(C#C[Si](C)(C)C)cc5)cc4)c3)cc2)cc1 | 110 to 111 °C
19 | CCCCCC(CC(=O)Nc1cc(C(=O)NC(=O)c2ccncc2)ccc1C(C)(C)C)c1ccc(OC)cc1OC (stereo not given) | 184 to 185 °C
20 | O=C(NN=C(c1ccccc1)c1ccncc1)c1cccnc1 | 74 °C

Row | Compound | melting point
21 | CCOC(=O)c1cn(-c2nccnn2)cn1 | 193 to 194 °C
22 | Cc1ccc2c(NCc3ccc(NC(=O)C4CCN(Cc5ccc(F)c(F)c5)CC4)cc3)nc(N(C)C)nc2c1 | 97 to 99 °C
23 | CCOc1cc(OCCCc2cn(-c3ccc(C(F)(F)F)cn3)nc2O)ccc1CCC(=O)O | 192 to 194 °C
24 | CCC1(NC(=O)C(Br)CCl)COCOC1 (stereo not given) | 95 to 109 °C
25 | O=C(c1ccc(Br)cc1)c1ncccc1O | 94 to 95 °C
26 | CCOC(=O)c1c(C)nc(-c2ccccc2)nc1-c1ccc(F)cc1 | 82 to 94 °C
27 | O=C1C=C(NCc2ccccc2I)CCN1 | 163 to 164 °C
28 | N#Cc1ccc(C(=O)NCCCCn2cnc3c(N)nc4ccccc4c32)cc1 | 223 to 225 °C
29 | Clc1ccc2c(c1)N=C(N1CCNCC1)c1nccn1C2 | 120 to 123 °C
30 | CC(C)n1nc(-c2c(N)nc(N)nc2-c2ccccc2)ccc1=O | 258 to 260 °C
31 | OC(CN1CCC(C(O)c2ccccc2)CC1)c1ccc(F)cc1 (stereo not given) | 114 to 116 °C
32 | COc1cc2nc(SCc3nccc(N(C)C)c3F)[nH]c2cc1OC | 142 to 144 °C
33 | CCCCCCN1CCC(C(=O)NCC)(c2ccccc2)CC1 | 92 to 94 °C
34 | O=c1nc(N2CCN(c3ccccc3F)CC2)sc2c([N+](=O)[O-])cc(C(F)(F)F)cc12 | 164 to 168 °C
35 | COC(=O)c1sc2cccc(Cl)c2c1Br | 120 to 122 °C
36 | COc1nc(N)nc2c1ncn2[C@H]1C[C@H](O)[C@@H](CO)O1 | 155 to 157 °C
37 | CN1CC=C(C(=O)N2c3ccccc3C(=O)Nc3cccc(Cl)c32)CC1 | 296 °C
38 | Cc1[nH]c2ccc(F)cc2c1C(=O)Nc1ccc(OCC(C)(C)C)c(C#N)c1 | 169 to 171 °C
39 | O=C(NCc1ccc(Cl)cc1)c1cnc2sc(CCCO)cc2c1O | 185 to 186 °C
40 | N=C(NO)c1ccc(-c2ccc(O)c(-c3nc4cc(C(=N)NO)ccc4[nH]3)c2)cc1 | 319 to 322 °C
